The source of these data is publication PMC8873228, “In-depth comparison of the metabolic and pharmacokinetic behaviour of the structurally related synthetic cannabinoids AMB-FUBINACA and AMB-CHMICA in rats” (Communications Biology, 2022).

The nature of series [1]: Quantification of parent compounds and O-demethyl metabolites in rat brain, liver, kidney, serum and urine by UHPLC-HRMS after intraperitoneal injection. The format is in vivo, male Sprague-Dawley rats. The note with it: 1 mg/kg i.p.; for concentration at 30 min: 30 min after injection. How it is done:
8 male Sprague-Dawley rats (8 weeks old, weighing between 385 and 425 g) were used as animal models (Janvier Labs, Le Genest-Saint-Isle, France). Animals were housed individually in polypropylene plastic cages under controlled temperature (24 ± 2 °C) and lighting conditions (12 h:12 h; lights ON at 8 AM), with ad libitum access to food and water. Before SCRA injection, animals were handled and habituated to the experimental room for 1 week. All the experiments were approved by the Committee of Ethics and Animal Experimentation of Universitat Jaume I (2019/VSC/PEA/048) and treated throughout according to the European Union Council Directive of June 3rd, 2010 (6106/1/10 REV1).
SCRAs were dosed intraperitoneally at 1 mg/kg. This dose was selected based on similar studies reported in literature. The solution used for injection was prepared at 1 mg/mL in physiological saline solution containing 5% ethanol. Between 385 and 425 µL of that solution were injected depending on animal weight. Blood (serum), liver, brain, and kidney samples were dissected 15, 30, and 180 min after injection (previously anesthetised with CO2 and decapitated immediately). Blood was collected mainly from carotid arteries and jugular veins and kept at room temperature for 30 min to elicit coagulation. Then, blood was centrifuged 10 min at 2000 rcf at 4 °C in order to separate serum from sedimented clot. Liver, kidney, and brain were rapidly dissected and snap-freezing in liquid nitrogen. One animal was used for each dissection time. Additional serum, liver, brain, and kidney samples were obtained from an animal 48 h after being SCRA-dosed, and used as control. Urine samples were collected at 30, 60, 90, 120, 180, 240, 300, and 360 min, together with an additional sample at 24 h (composite urine sample between 360 min and 24 h, collected from animal dissected at 48 h). Urine samples were obtained from the bottom of the cage at the indicated time. Additionally, urine sample collected from one of the animals prior to injection was used as control. Samples were snap-frozen in liquid nitrogen after collection, and preserved at −23 °C until analysis.
Solid samples (brain, liver, and kidney) were crushed with dry ice using an electric grinder. 0.1 g were accurately weighed (±0.1 mg) in 1.5 mL polypropylene tubes, and 0.3 mL of acetonitrile acidified with 1% of formic acid were added for extraction. After that, samples were sonicated for 5 min, followed by 30 min of vortex agitation. Samples were then frozen for 30 min in order to increase protein removal. Finally, they were centrifuged at 12,500 rfc during 15 min, and the supernatant was 10-fold diluted with ultrapure water for UHPLC-HRMS analysis.
Similarly to solid samples, samples were frozen for 30 min, centrifuged at 12,500 rfc for 15 min, and the supernatant 10-fold diluted with ultrapure water for UHPLC-HRMS analysis.
For parent compounds and O-demethyl metabolites estimated quantification, a calibration line in solvent from 2.5 to 250 ng/mL was included in each batch analysis, as well as different quality control samples (QCs) prepared with blank extracts and spiked at 200 ng/mL for evaluating matrix effect and apply a correction factor.
Samples were analysed using an Acquity ultra-performance liquid chromatography (UPLC) system (Waters Corp, Mildford, MA, USA) coupled to a Xevo G2 QTOF (Waters Corp, Manchester, UK) mass spectrometer with quadrupole time-of-flight (QTOF) hybrid mass analyser.
Chromatographic separation was performed using a Cortecs T3 100 ×2.1 mm, 1.6 µm particle size analytical column (Waters Corp, Wexford, Ireland), maintained at 40 °C. […] Injection volume was 50 µL.

A further series has as its system pooled human hepatocytes. As to conditions: AMB-FUBINACA incubated with pooled human hepatocytes; cited from earlier work.
The mark [2] stands for this setting: 15 min after injection, one sample, estimated concentration, 1 mg/kg.
Setting [3] is: male, Sprague-Dawley, brain, ip, 1 mg/kg, 15 min after injection, one sample, estimated concentration, read-out: Brain concentration.
Setting [4] is: male, Sprague-Dawley, brain, ip, 1 mg/kg, one sample, estimated concentration, read-out: Brain concentration.
Where [5] appears, read: male, Sprague-Dawley, brain/serum, ip, read-out: Brain/serum ratio, tissue (ng/g)/serum (ng/mL).
Where [6] appears, read: male, Sprague-Dawley, kidney, ip, 1 mg/kg, 15 min after injection, one sample, estimated concentration, read-out: Kidney concentration.
The mark [7] stands for this setting: male, Sprague-Dawley, kidney, ip, 1 mg/kg, one sample, estimated concentration, read-out: Kidney concentration.
[8] abbreviates: male, Sprague-Dawley, kidney/serum, ip, read-out: Kidney/serum ratio, tissue (ng/g)/serum (ng/mL).
Setting [9] is: male, Sprague-Dawley, liver, ip, 1 mg/kg, 15 min after injection, one sample, estimated concentration, read-out: Liver concentration.
Setting [10] is: male, Sprague-Dawley, liver, ip, 1 mg/kg, one sample, estimated concentration, read-out: Liver concentration.
[11] abbreviates: male, Sprague-Dawley, liver, ip, 1 mg/kg, 180 min after injection, one sample, estimated concentration, read-out: Liver concentration.
Setting [12] is: male, Sprague-Dawley, liver/serum, ip, read-out: Liver/serum ratio, tissue (ng/g)/serum (ng/mL).
[13] abbreviates: male, Sprague-Dawley, liver/serum, ip, 180 min, read-out: Liver/serum ratio, tissue (ng/g)/serum (ng/mL).
[14] abbreviates: male, Sprague-Dawley, serum, ip, 1 mg/kg, 15 min after injection, one sample, estimated concentration, read-out: Serum concentration.
Where [15] appears, read: male, Sprague-Dawley, serum, ip, 1 mg/kg, one sample, estimated concentration, read-out: Serum concentration.
The mark [16] stands for this setting: male, Sprague-Dawley, serum, ip, 1 mg/kg, 180 min after injection, one sample, estimated concentration, read-out: Serum concentration.
Where [17] appears, read: male, Sprague-Dawley, kidney, ip, 1 mg/kg, 180 min after injection, one sample, estimated concentration, read-out: Kidney concentration.
The mark [18] stands for this setting: 48 h after injection, one sample, estimated concentration, 1 mg/kg.

Molecules are shown by their SMILES. Entries after “also recorded” stand apart in the source; their conditions may differ. Read-outs that look alike come from different tables or passages of the source.

On to `COC(=O)C(NC(=O)c1cn(CC2CCCCC2)c2ccccc12)C(C)C` (stereo not drawn) [AMB-CHMICA], for which the Brain concentration in series [1] (setting [2]) is 21.3 ng/g. Also, in series [1] (180 min after injection, one sample, estimated concentration, 1 mg/kg), the Liver concentration is 4.64 ng/g. Also, the concentration at 15 min in series [1] (setting [3]) was 21 ng/g; in series [1] (setting [6]), 36.5 ng/g; in series [1] (setting [9]), 846 ng/g; in series [1] (setting [14]), 45.1 ng/mL. The concentration at 30 min is 20.7 ng/g in series [1] (setting [4]), 66 ng/g in series [1] (setting [7]), 874 ng/g in series [1] (setting [10]) and 65.9 ng/mL in series [1] (setting [15]). Moreover, the Kp at 15 min was found to be 0.47 in series [1] (setting [5]), 0.81 in series [1] (setting [8]) and 18.8 in series [1] (setting [12]). The Kp at 30 min in series [1] (setting [5]) is 0.31; in series [1] (setting [8]) it was 1; in series [1] (setting [12]), 13.3. Further, the concentration at 180 min in series [1] (setting [11]) was less than 5 ng/g; in series [1] (setting [16]), 3.93 ng/mL. Further, the Kp at 180 min in series [1] (setting [13]) was 1.18.

`COC(=O)C(NC(=O)c1nn(Cc2ccc(F)cc2)c2ccccc12)C(C)C` (stereo not drawn) [AMB-FUBINACA]: the Brain concentration in series [1] (setting [2]) is 57.2 ng/g. Moreover, the Liver concentration in series [1] (setting [2]) is reported as 7.25 ng/g; in series [1] (180 min after injection, one sample, estimated concentration), “no longer detected”. The “Blood-brain barrier permeability compared by brain/serum concentration ratio” value in series [1] (at measured time points, versus AMB-CHMICA, 1 mg/kg) is “higher permeability than AMB-CHMICA (up to ten times); also recorded: around ten-fold more permeable than AMB-CHMICA”. Moreover, the concentration at 15 min in series [1] (setting [3]) was 57 ng/g; in series [1] (setting [6]), 42.6 ng/g; in series [1] (setting [9]), 7 ng/g; in series [1] (setting [14]), 13 ng/mL. Moreover, the concentration at 30 min was 18.4 ng/g in series [1] (setting [4]), 16.4 ng/g in series [1] (setting [7]), 4.59 ng/g in series [1] (setting [10]) and 3.03 ng/mL in series [1] (setting [15]). In addition, the concentration at 180 min is 2.64 ng/g in series [1] (male, Sprague-Dawley, brain, ip, 1 mg/kg, 180 min after injection, one sample, estimated concentration, read-out: Brain concentration) and 3.36 ng/g in series [1] (setting [17]). The Kp at 15 min in series [1] (setting [5]) amounted to 4.38; in series [1] (setting [8]), 3.27; in series [1] (setting [12]), 0.56. Besides, the Kp at 30 min in series [1] (setting [5]) came out at 6.05; in series [1] (setting [8]) it was 5.42; in series [1] (setting [12]) it was 1.52.

As for `CC(C)C(NC(=O)c1nn(Cc2ccc(F)cc2)c2ccccc12)C(=O)O` (stereo not drawn) [O-demethyl AMB-FUBINACA], the Liver concentration in series [1] (setting [2]) is recorded as 111 ng/g; in series [1] (setting [18]), 31.49 ng/g. The results for the Serum concentration in series [1] (setting [2]) and in series [1] (setting [18]) were 24.9 ng/mL and 5.72 ng/mL, respectively. The Urine concentration in series [1] (24 h (composite urine 360 min to 24 h)) came out at 7.33 ng/mL. Besides, the concentration at 30 min in series [1] (setting [4]) is 3.83 ng/g; in series [1] (setting [7]), 27.4 ng/g; in series [1] (setting [10]) it was 356 ng/g; in series [1] (setting [15]) it was 76.8 ng/mL. Moreover, the Kp at 30 min was found to be 0.05 in series [1] (setting [5]), 0.36 in series [1] (setting [8]) and 4.63 in series [1] (setting [12]). The concentration at 15 min in series [1] (setting [6]) was 12.5 ng/g; in series [1] (setting [9]), 110 ng/g; in series [1] (setting [14]), 25 ng/mL. Moreover, the concentration at 180 min is 43.7 ng/g in series [1] (setting [17]); 265 ng/g in series [1] (setting [11]); 136 ng/mL in series [1] (setting [16]); 5.78 ng/mL in series [1] (male, Sprague-Dawley, urine, ip, 1 mg/kg, 180 min, read-out: Urine concentration). The Kp at 15 min in series [1] (setting [8]) was 0.5; in series [1] (setting [12]) it was 4.47. In addition, the Kp at 180 min in series [1] (male, Sprague-Dawley, kidney/serum, ip, 180 min, read-out: Kidney/serum ratio, tissue (ng/g)/serum (ng/mL)) amounted to 0.32; in series [1] (setting [13]), 1.94. In addition, the concentration at 48 h is 31 ng/g in series [1] (male, Sprague-Dawley, liver, ip, 1 mg/kg, 48 h after injection, one sample, estimated concentration, read-out: Liver concentration) and 6 ng/mL in series [1] (male, Sprague-Dawley, serum, ip, 1 mg/kg, 48 h after injection, one sample, estimated concentration, read-out: Serum concentration). Also, the concentration at 300 min in series [1] (male, Sprague-Dawley, urine, ip, 1 mg/kg, 300 min) was 1.13 ng/mL. The “Incubation time after which the O-demethyl metabolite was the major compound in incubation media” value in the series with pooled human hepatocytes is 2 to 3 min.
